The values that follow are results of earlier work, collected in patent US5908934A, “Process for the preparation of chiral ketone intermediates useful for the preparation of flavopiridol and analogs” (Bristol-Myers Squibb Company, priority 1997, dated 1999).

SMILES strings stand for the structures.

The test system of the data set is apoptosis. The following applies: combination with known cytotoxic agents; J. Cell Sci., 108, 2897 (1995).

`Cn1cnc2c(NCc3ccccc3)nc(NCCO)nc21` [olomucine]: the “synergy with known cytotoxic agents in inducing apoptosis” value was “act synergistically with known cytotoxic agents in inducing apoptosis”.
